Test results from article PMC2680759, “Non-Invasive Molecular Imaging of Fibrosis Using a Collagen-Targeted Peptidomimetic of the Platelet Collagen Receptor Glycoprotein VI” (PLoS ONE, 2009).
Bridges are numbered along the chain shown (N, C = ends). Where no end group is shown, it is not given here.

Tests used:
Conditions in all cases: biotin-peptide 50 µg/mL, microtitration plate, n = 3
vitronectin = biological target: T1, vitronectin (Rattus norvegicus, UniProt F7F5X0); test: Solid phase assay, vitronectin; assay type: binding
T1 sequence (F7F5X0 20-490): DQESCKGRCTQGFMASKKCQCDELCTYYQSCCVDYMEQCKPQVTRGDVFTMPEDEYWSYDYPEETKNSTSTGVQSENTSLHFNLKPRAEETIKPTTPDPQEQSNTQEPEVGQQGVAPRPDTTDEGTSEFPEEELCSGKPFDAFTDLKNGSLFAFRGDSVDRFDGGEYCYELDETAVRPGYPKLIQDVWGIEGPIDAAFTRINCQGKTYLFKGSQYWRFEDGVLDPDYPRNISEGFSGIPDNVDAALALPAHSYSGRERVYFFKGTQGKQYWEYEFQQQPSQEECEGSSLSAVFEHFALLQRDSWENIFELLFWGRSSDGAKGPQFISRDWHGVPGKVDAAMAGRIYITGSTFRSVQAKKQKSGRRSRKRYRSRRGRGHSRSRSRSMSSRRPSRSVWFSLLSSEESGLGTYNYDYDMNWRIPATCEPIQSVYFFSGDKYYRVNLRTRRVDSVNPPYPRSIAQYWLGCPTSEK
Protocol: (§1) Biotin-peptides (50 µg.mL^−1) were incubated on microtitration wells, coated with 1 µg of type-I collagen, convulxin, collagen related peptides, bovine fibrinogen, human fibronectin, rat vitronectin, murine laminin or bovine serum albumin. Bound peptides were detected using HRP-coupled extravidin and the HRP substrate O-phenyl-dianisidine.

laminin = laminin (Mus musculus, UniProt P02468+P02469+P19137); test: Solid phase assay, laminin; assay type: binding, murine
Protocol: as §1

[1] = system: collagen related peptide (CRP); test: Solid phase assay, collagen related peptide; assay type: binding
Protocol: as §1

fibronectin = fibronectin (Homo sapiens, UniProt P02751); test: Solid phase assay, fibronectin; assay type: binding
Chain of fibronectin (P02751 32-2477): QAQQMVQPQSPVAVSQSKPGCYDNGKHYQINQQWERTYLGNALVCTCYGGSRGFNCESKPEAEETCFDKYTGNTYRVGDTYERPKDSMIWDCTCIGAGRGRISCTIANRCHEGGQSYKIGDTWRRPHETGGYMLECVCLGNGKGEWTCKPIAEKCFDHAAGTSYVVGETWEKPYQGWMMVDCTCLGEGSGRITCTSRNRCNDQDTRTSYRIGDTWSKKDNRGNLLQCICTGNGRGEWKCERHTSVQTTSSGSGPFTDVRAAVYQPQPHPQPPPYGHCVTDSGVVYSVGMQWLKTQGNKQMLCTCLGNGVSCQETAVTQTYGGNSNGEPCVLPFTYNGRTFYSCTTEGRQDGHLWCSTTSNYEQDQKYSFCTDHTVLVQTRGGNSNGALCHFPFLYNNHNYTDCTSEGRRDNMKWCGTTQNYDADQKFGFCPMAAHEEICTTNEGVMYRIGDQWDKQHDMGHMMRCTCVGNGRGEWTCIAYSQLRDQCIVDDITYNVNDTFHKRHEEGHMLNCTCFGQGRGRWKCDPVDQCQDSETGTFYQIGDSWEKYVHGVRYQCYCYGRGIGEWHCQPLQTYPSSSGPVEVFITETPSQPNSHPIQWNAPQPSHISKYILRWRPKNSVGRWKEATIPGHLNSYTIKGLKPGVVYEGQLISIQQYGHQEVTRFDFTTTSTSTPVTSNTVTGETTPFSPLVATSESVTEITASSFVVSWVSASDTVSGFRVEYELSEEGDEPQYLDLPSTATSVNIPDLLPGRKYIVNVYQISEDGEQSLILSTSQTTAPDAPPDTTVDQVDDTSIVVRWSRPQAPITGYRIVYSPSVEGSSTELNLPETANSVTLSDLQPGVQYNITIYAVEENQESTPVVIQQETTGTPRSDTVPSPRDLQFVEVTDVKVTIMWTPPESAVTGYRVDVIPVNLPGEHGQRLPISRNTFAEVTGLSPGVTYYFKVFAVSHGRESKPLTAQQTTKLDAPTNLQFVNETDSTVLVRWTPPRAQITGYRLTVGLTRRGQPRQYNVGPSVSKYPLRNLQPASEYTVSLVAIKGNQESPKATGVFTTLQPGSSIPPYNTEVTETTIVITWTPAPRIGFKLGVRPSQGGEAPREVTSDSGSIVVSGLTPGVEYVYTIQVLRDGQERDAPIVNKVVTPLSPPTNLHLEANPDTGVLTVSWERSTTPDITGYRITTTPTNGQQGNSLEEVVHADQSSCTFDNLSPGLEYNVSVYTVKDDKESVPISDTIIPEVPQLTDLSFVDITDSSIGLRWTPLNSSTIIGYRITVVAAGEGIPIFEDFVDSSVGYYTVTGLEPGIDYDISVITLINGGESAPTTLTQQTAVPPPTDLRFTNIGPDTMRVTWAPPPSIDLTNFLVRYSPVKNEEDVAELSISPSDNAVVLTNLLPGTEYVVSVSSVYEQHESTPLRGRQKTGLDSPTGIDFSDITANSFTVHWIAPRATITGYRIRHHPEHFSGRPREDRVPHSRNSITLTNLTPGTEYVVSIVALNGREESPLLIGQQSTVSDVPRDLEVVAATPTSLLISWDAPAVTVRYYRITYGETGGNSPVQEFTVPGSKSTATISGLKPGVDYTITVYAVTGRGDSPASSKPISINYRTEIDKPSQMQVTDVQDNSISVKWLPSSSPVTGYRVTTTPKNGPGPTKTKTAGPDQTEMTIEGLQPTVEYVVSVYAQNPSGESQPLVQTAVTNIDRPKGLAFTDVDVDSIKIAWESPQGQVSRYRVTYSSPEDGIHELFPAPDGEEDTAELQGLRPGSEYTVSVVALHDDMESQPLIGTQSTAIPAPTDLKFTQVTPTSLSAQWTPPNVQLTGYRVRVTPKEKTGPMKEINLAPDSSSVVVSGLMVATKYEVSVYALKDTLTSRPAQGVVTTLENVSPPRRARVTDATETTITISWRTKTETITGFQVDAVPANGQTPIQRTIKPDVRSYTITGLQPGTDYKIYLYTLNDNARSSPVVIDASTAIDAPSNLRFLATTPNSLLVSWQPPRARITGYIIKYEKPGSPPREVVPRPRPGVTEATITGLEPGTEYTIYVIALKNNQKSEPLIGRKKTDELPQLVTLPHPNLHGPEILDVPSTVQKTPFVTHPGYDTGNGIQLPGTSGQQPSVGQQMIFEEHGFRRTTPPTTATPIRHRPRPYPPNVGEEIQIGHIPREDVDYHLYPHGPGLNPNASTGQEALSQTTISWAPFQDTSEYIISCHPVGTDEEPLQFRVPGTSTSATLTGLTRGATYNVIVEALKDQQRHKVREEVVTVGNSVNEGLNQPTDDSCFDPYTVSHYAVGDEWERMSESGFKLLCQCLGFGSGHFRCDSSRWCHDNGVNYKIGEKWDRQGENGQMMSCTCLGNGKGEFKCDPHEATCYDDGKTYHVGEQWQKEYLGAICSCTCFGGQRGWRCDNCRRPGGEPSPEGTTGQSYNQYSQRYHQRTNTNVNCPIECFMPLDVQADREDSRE
Protocol: as §1

fibrinogen = biological target: T2, fibrinogen (Bos taurus, UniProt P02672+P02676+P12799); test: Solid phase assay, fibrinogen; assay type: binding, bovine
T2 sequence (P02672 20-615): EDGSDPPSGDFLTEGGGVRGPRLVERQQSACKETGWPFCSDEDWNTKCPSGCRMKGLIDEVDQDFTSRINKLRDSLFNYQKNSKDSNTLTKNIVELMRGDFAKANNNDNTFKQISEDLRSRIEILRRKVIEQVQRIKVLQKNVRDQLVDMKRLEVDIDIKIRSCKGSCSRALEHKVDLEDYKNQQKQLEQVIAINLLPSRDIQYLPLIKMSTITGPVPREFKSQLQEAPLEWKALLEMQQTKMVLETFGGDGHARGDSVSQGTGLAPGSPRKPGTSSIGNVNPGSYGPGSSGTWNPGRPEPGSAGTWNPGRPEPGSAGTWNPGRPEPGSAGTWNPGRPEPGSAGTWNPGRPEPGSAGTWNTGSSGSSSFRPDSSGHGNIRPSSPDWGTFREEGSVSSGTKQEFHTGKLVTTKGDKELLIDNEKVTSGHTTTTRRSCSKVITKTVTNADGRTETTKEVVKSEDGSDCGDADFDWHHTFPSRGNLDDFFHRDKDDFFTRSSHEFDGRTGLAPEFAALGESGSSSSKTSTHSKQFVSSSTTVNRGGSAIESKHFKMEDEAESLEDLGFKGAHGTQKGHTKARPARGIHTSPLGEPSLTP
T2 sequence (P02676 1-468): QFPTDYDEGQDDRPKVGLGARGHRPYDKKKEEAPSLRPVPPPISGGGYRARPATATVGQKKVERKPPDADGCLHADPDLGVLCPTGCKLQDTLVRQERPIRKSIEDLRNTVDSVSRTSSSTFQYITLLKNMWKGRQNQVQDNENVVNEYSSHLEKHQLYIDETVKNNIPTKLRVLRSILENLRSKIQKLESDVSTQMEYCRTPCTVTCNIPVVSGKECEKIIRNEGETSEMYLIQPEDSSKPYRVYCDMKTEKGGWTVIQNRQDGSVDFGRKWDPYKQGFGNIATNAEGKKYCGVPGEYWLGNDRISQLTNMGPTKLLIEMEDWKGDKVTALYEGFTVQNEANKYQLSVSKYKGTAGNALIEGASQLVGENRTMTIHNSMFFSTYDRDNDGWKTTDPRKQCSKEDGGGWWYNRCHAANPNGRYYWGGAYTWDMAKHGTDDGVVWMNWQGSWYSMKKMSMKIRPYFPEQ
T2 sequence (P12799 25-444): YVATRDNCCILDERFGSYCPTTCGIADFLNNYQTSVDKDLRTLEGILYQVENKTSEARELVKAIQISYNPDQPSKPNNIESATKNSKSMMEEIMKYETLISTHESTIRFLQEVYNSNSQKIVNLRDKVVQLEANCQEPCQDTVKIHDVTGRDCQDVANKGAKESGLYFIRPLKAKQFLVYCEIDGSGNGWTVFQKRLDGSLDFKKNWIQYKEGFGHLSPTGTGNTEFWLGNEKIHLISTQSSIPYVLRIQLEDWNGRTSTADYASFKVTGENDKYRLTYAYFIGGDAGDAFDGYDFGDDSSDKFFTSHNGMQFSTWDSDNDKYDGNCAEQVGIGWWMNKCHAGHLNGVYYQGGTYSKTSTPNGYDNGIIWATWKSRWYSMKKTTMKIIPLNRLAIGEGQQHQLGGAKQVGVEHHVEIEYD
Protocol: as §1

Compound	Binding to immobilized vitronectin (vitronectin)	Binding to immobilized laminin (laminin)	Binding to immobilized CRP [1]	Binding to immobilized fibronectin (fibronectin)	Binding to immobilized fibrinogen (fibrinogen)
CSCC[C@@H]1NC(=O)[C@H](C(C)C)NC(=O)[C@H](CCCNC(=N)N)NC(=O)CNC(=O)[C@@H]2CCCN2C(=O)[C@@H](NC(=O)CNC(=O)[C@H](CO)NC(=O)CNC(=O)[C@H](CO)NC(=O)CCCC[C@@H]2SC[C@@H]3NC(=O)N[C@@H]32)CSSC[C@@H](C(N)=O)NC(=O)[C@@H]2CCCN2C(=O)CNC(=O)[C@H](CCC(=O)O)NC(=O)[C@H](CC(=O)O)NC(=O)[C@H](CC(=O)O)NC(=O)CNC(=O)[C@H](CC(C)C)NC(=O)[C@H](Cc2c[nH]cn2)NC(=O)[C@H](CC(C)C)NC(=O)CNC(=O)[C@H](Cc2c[nH]cn2)NC1=O [collagelin]	either to be weak or not to occur at all	consistently bound	bound	either to be weak or not to occur at all	either to be weak or not to occur at all
SGSGCGPQGARGLTGASAGGPC (disulfide 5-22 (inferred)) [reference compound]	did not bind	did not bind	did not bind	did not bind	did not bind
